Test results as given in patent US4762848A, “1,3-thiazoles and their use as immunomodulators” (Hoechst Aktiengesellschaft, priority 1985, dated 1988).

What was measured:
[1] = tested on: cellular immune response (DTH reaction) to sheep erythrocytes; assay: Delayed type hypersensitivity (DTH) foot swelling reaction to sheep erythrocytes; type: in vivo, female NMRI mice; settings: mice, i.p. and p.o.
Method: Effect On The Cellular Immunological Reaction, of the Delayed Type, to Sheep Erythrocytes (Delayed Type Hypersensitivity, DTH)
Either 10^6 or 10^9 red blood cells from sheep were administered intravenously to each animal in groups of 5 female NMRI mice weighing 18-20 g. Sheep erythrocytes are regarded in immunology as a standard test substance (antigen) for the induction of cellular and humoral immune reactions. In particular, this test provides information about the functioning of the T-cell-dependent component (T-helper cells) of the immune system. The test substance obtained as in exemplary embodiment 7 ([2-(3-carboxy-1-propylthio)-4 -methyl-1,3-thiazol-5-yl]acetic acid) was administered intraperitoneally and perorally, respectively, in the concentrations 10-100 mg/kg in physiological saline solution on days -3, -2, -1 and 0.After 5 days, each animal received 2×10^8 sheep erythrocytes injected into the underside of the foot and, 24 hours later, the swelling of the foot was measured. The foot swelling is induced by a skin reaction of the delayed type (delayed type hypersensitivity, DTH) and is, as is known to the expert, a measure of the cellular immune response (Collins, F. M. and Mackaness, G. B., J. Immunol. 101, 830-845, 1968). […]

[2] = tested on: mouse peritoneal macrophages; assay: Release of lysosomal hydrolase enzymes from peritoneal macrophages of treated mice; type: in vivo, NMRI mice; settings: for N-Ac-Glu % release: N-acetyl-β-D-glucosaminidase; for β-Gal % release: β-galactosidase; for β-Glu % release: β-glucuronidase
Method: (§1) This entailed investigation of the effect of the test substance obtained as in exemplary embodiment 7 on the stimulation of peritoneal macrophages in 6-8 week old NMRI mice. Female mice received the test substance in parenteral or oral doses of 25 mg/kg, 50 mg/kg, 100 mg/kg and 200 mg/kg. Buffered saline solution was administered to a control group. The mice were sacrificed three days after the injections, and the peritoneal macrophages of the animals were examined for their state of activation. The secretion of the lysosomal enzymes (β-galactosidase, β-glucuronidase and N-acetyl-β-D-glucosaminidase) was determined as one measure of macrophage activation. […] The level of oxidative metabolism in macrophages is taken as another measure of their state of activation. This activity is measured with the assistance of a biolumate by determination of the chemiluminescence.
(§2) For this purpose, either 3×10^6 macrophages were cultured with 1 ml of TC 199 culture medium in Petri dishes of diameter 30 mm or 10^6 macrophages were cultured with 100 μl of medium in round-bottomed polyethylene tubes (for determination of the chemiluminescence), with 5% CO2 and at 37° C.
(§3) After incubation for one hour, the cultures were washed to remove floating cells. The chemiluminescence (tube culture) was then determined directly, whereas the Petri dishes were incubated for a further 24 hours at 37° C. and then the enzyme and pinocytosis activities in the cultures were determined.
It can be seen from Table 3 that macrophages from control mice release only small amounts of lysosomal enzymes (β-glucuronidase, β-galactosidase and N-acetyl-β-D-glucosaminidase) into the culture supernatant. […] It is evident that the test substance has a stimulant action on macrophage activity and contributes to an increase in enzyme release.

[3] = tested on: mouse peritoneal macrophages; assay: Pinocytosis of colloidal gold (198Au) by peritoneal macrophages of treated mice; type: in vivo, NMRI mice
Method: as §1, §2, §3
The quantitative determination of the pinocytosis activity of mononuclear phagocytes was carried out by the method of Davies et al. (Davies, P., Allison, A. C. and Haswell, A. D.; Biochem. Biophys. Res. Com. 52, 627, 1973). Radioactive colloidal gold (^198 Au) with a particle size of 20 nm and a specific activity of 4-12 mCi/mg of Au was used for this. The results in Table 4 illustrate the effect of the test substance obtained as in Example 7 on the efficiency of endocytosis.

macrophages = assay: Stimulation of macrophage activity (chemiluminescence), relative to the compound from Example 7; type: in vivo, NMRI mice; settings: 100 mg/kg, 1 × i.p. day 0; relative to Example 7 = 100%
Method: as §1, §2, §3
NMRI mice were treated with the compounds according to the invention as described in experiment 2.
The macrophage function (chemiluminescence and enzyme activity) was checked as a test to determine the immunostimulation.
It can be seen from the table that in comparison with macrophages from untreated animals, the chemiluminescence reaction of these cells was also greatly stimulated by all the test substances, and their content of lysosomal enzymes was markedly raised.

Cc1nc(SCCCC(=O)O)sc1CC(=O)O [Example 7, [2-(3-Carboxy-1-propylthio)-4-methyl-1,3-thiazol-5-yl]acetic acid]
dose for optimum stimulation of the cellular immune response [1]: 20 to 40 mg/kg
N-Ac-Glu % release ([2]; 25 mg/kg, 1 × i.p.): 17.2%
N-Ac-Glu % release ([2]; 25 mg/kg, 1 × p.o.): 15.4%
N-Ac-Glu % release ([2]; 50 mg/kg, 1 × i.p.): 26.0%
N-Ac-Glu % release ([2]; 50 mg/kg, 1 × p.o.): 22.8%
N-Ac-Glu % release ([2]; 100 mg/kg, 1 × i.p.): 40.8%
N-Ac-Glu % release ([2]; 100 mg/kg, 1 × p.o.): 37.3%
N-Ac-Glu % release ([2]; 200 mg/kg, 1 × i.p.): 51.5%
N-Ac-Glu % release ([2]; 200 mg/kg, 1 × p.o.): 45.2%
β-Gal % release ([2]; 25 mg/kg, 1 × i.p.): 24.1%
β-Gal % release ([2]; 25 mg/kg, 1 × p.o.): 20.4%
β-Gal % release ([2]; 50 mg/kg, 1 × i.p.): 33.5%
β-Gal % release ([2]; 50 mg/kg, 1 × p.o.): 26.9%
β-Gal % release ([2]; 100 mg/kg, 1 × i.p.): 52.9%
β-Gal % release ([2]; 100 mg/kg, 1 × p.o.): 43.6%
β-Gal % release ([2]; 200 mg/kg, 1 × i.p.): 65.4%
β-Gal % release ([2]; 200 mg/kg, 1 × p.o.): 54.8%
β-Glu % release ([2]; 25 mg/kg, 1 × i.p.): 20.0%
β-Glu % release ([2]; 25 mg/kg, 1 × p.o.): 17.5%
β-Glu % release ([2]; 50 mg/kg, 1 × i.p.): 30.9%
β-Glu % release ([2]; 50 mg/kg, 1 × p.o.): 25.1%
β-Glu % release ([2]; 100 mg/kg, 1 × i.p.): 42.8%
β-Glu % release ([2]; 100 mg/kg, 1 × p.o.): 38.2%
β-Glu % release ([2]; 200 mg/kg, 1 × i.p.): 58.2%
β-Glu % release ([2]; 200 mg/kg, 1 × p.o.): 49.8%
efficiency of pinocytosis of mouse macrophages ([3]; 25 mg/kg, 1 × intraperitoneal): 0.415 × 10^3 cpm
efficiency of pinocytosis of mouse macrophages ([3]; 25 mg/kg, 1 × oral): 0.365 × 10^3 cpm
efficiency of pinocytosis of mouse macrophages ([3]; 50 mg/kg, 1 × intraperitoneal): 0.558 × 10^3 cpm
efficiency of pinocytosis of mouse macrophages ([3]; 50 mg/kg, 1 × oral): 0.448 × 10^3 cpm
efficiency of pinocytosis of mouse macrophages ([3]; 100 mg/kg, 1 × intraperitoneal): 0.718 × 10^3 cpm
efficiency of pinocytosis of mouse macrophages ([3]; 100 mg/kg, 1 × oral): 0.661 × 10^3 cpm
efficiency of pinocytosis of mouse macrophages ([3]; 200 mg/kg, 1 × intraperitoneal): 0.862 × 10^3 cpm
efficiency of pinocytosis of mouse macrophages ([3]; 200 mg/kg, 1 × oral): 0.739 × 10^3 cpm
Macrophage activity: Chemiluminescence, relative activity (macrophages): 100%
